The values that follow are results of earlier work, collected in US20020107236A1, “Methods of treating sexual dysfunction associated with hypertension” (priority 2000, published 2002).

The subject of the data set is male rats. The settings on record: used for treatment of hypertensive disorder in male rats.

On to `CCCCc1nc(Cl)c(CO)n1Cc1ccc(-c2ccccc2-c2nn[nH]n2)cc1` [losartan], for which the “preservation of sexual function” value is “advantage in preservation of sexual function”.
